Values quoted from earlier work in patent publication US20140271866A1, “TRANSDERMAL DRUG DELIVERY SYSTEM CONTAINING RIVASTIGMINE” (priority 2013, published 2014).

Conditions: in vivo

For `CCN(C)C(=O)Oc1cccc([C@H](C)N(C)C)c1` [Rivastigmine, rivastigmine], the half-life is listed as “about 1.5 hours”.
